What was measured:
ETR1 = test: Yeast 2-hybrid PLS-ETR1; type: binding, Arabidopsis; conditions: preliminary yeast 2-hybrid, YRG-2 strain
Description: The GAL4 2-hybrid phagemid vector system was used to detect protein–protein interactions in vivo in yeast, using the reporter genes β-galactosidase (lacZ) and histidine (HIS3) in the YRG-2 yeast strain, essentially as described previously ([Zhong et al., 2008]). DNA sequences encoding the target (ETR1) and bait (PLS) were inserted into the pAD-GAL4-2.1 A and pBD-GAL4 Cam phagemid vectors, respectively, and expressed as hybrid proteins. The hybrid proteins were then assayed for protein–protein interaction.
DNA sequences encoding the target and bait proteins were prepared by PCR amplification using primers designed specifically for the target (ETR1) and bait (PLS). Each set of primers contained specific endonuclease recognition sites on the ends corresponding to the restriction sites in the MCS of the pAD-GAL4-2.1 A and pBD-GAL4 Cam phagemid vectors. The DNA constructs for the target (ETR1) and bait (PLS) with specific restriction sites on the ends were then transformed into the TOPO 2.1 vector, and the sequence of the amplified DNA was confirmed by sequencing with M13 forward (CTG GCC GTC GTT TTA C) and M13 reverse (CAG GAA ACA GCT ATG AC) primers. […] The DNA sequences encoding the target (ETR1) and bait (PLS) were then ligated into the same reading frame as the GAL4 AD of the pAD-GAL4-2.1 phagemid vector and the GAL4 BD of the pBD-GAL4 Cam phagemid vector. […]

[1] = Anaerobic Cu(I) titration in competition with bicinchoninic acid (BCA); type: binding
Description: (§1) Freeze-dried synthetic PLS peptide (Cambridge Research Biochemicals) was dissolved in DMSO. An aliquot was added to aqueous buffer (10 mM HEPES [pH 7], 20 mM NaCl, 80 mM KCl), and absorbance was recorded at 280 nm. PLS concentration was estimated from the absorbance and the ProtParam estimated extinction coefficient of 2980 M^−1 cm^−1. Concurrently, a sample was submitted for quantitative amino acid analysis (Abingdon Health Laboratory Services). From this analysis, a conversion factor of 2.27 was generated, which was applied to the concentrations determined by A280 nm.
A fusion of PLS to MBP was created using the NEBExpress MBP Fusion and Purification System. Two complementary oligonucleotide primers encoding PLS (optimized for expression in E. coli) were annealed and inserted into the pMal-c5x plasmid at the XmnI and SalI insertion sites. The three mutants MBP:PLS(C6S), MBP:PLS(C17S), and MBP:PLS(C6S/C17S) were created by site-directed mutagenesis (QuikChange II, Agilent). E. coli NEB Express containing the pMal plasmid with the correct MBP:PLS mutant was used to overexpress each protein. Harvested cells were resuspended in 20 mM Tris–HCl (pH 7.4), 200 mM NaCl, and 1 mM EDTA, then frozen at −20°C overnight. Cells were defrosted in cold H2O, sonicated, purified by ammonium sulfate precipitation (where MBP-PLS precipitates >60% saturation), separated on an MBP-Trap column (GE Healthcare), and eluted using buffer containing 10 mM maltose. MBP:PLS-containing fractions were pooled and concentrated using a centrifugal concentrator (Corning, Spin-X UF 30 kDa) and buffer exchanged by desalting column into a metal-free buffer of 20 mM HEPES (pH 7.0) and 50 mM NaCl in an anaerobic chamber (Belle Technology). Mutants containing thiols were quantified using Ellman’s assay, and MBP:PLS(C6S/C17S), which lacks all thiols, was quantified using the Bradford assay alone. Samples were also analyzed for metal content by ICP–MS to ensure >95% apo-protein.
(§2) All Cu(I) titration experiments were carried out in an anaerobic chamber (Belle Technology) using metal-free CHELEX-treated, degassed buffers. For titration experiments with Cu(I), aqueous CuSO4 stock was quantified in advance by ICP–MS and diluted to working concentrations. The reductant NH2OH was included at a final concentration of 1 mM to maintain Cu(I) in its reduced state. Proteins were diluted in buffer to the final concentration specified in each titration in air-tight quartz cuvettes (Helma), and after addition of probe to the concentration specified, titrated with CuSO4. After each addition, solutions were thoroughly mixed and absorbance spectra recorded using a Lambda 35 UV/Vis spectrophotometer (PerkinElmer). Titration isotherm data were fitted using simulated affinity curves with DynaFit ([Kuzmič, 2009]).

[2] = Anaerobic Cu(I) titration monitored by UV-vis and fluorescence spectra; type: binding; conditions: 19.8 μM synthetic PLS, titration with CuCl; features at 242 nm and 306 nm
Description: as §1
All Cu(I) titration experiments were carried out in an anaerobic chamber (Belle Technology) using metal-free CHELEX-treated, degassed buffers. […] The reductant NH2OH was included at a final concentration of 1 mM to maintain Cu(I) in its reduced state. […] After each addition, solutions were thoroughly mixed and absorbance spectra recorded using a Lambda 35 UV/Vis spectrophotometer (PerkinElmer). Titration isotherm data were fitted using simulated affinity curves with DynaFit ([Kuzmič, 2009]).

[3] = Solubility during Cu(I) titration; type: physicochemical; conditions: strictly anaerobic conditions
Description: as §2

[4] = 44.8 μM synthetic PLS, 87 μM BCA, anaerobic

PLS(FL): full-length 36-amino-acid PLS peptide from Arabidopsis (MKPRLCFNFRRRSISPCYISISYLLVAKLFKLFKIH)
interaction with ETR1 (ETR1): interacts with ETR1
Cu(I) affinity relative to BCA [1, 4]: tighter than that of BCA
increase in Cu(I) concentration required to saturate BCA [1, 4]: ~20 µM
withholding of Cu(I) from BCA ([1]; synthetic peptide, mutant 40 μM, BCA 93.3 μM, mean ± SD, n = 3 (supplemental Figure 10)): withholds Cu(I) from BCA
Cu(I)-dependent change of UV-vis and fluorescence spectra [2]: consistent with complex formation
solubility [3]: problems with PLS solubility
